Reference: patent US10086085B2, “Bifunctional cytotoxic agents” (priority 2014, dated 2018)
Like-named read-outs stand apart in the source and are kept apart here.

Experiments:
HL60 (leukemia) = assay: Cytotoxicity assay for payloads (MTS), HL-60 cells; assay type: cell-based; conditions: Homo sapiens, 96 h, incubated with compounds for four days, MTS absorbance 490 nm
Description: (§1) Cancer cell lines were obtained from ATCC (Manassas, Va.). N87 (human gastric carcinoma derived from metastatic liver site). HL60 (leukemia), A375 (melanoma) and HUVEC (human umbilical vein endothelial cells). were grown in RPMI 1640 media. All media were supplemented with 10% fetal bovine serum, 1% sodium pyruvate, and 1% L-glutamine (Invitrogen, Grand Island, N.Y.). Human umbilical vein endothelial cells (HUVEC) were obtained from Lonza (Allendale, N.J.) and maintained in EGM2 media supplemented with EGM-2 SingleQuots (Lonza # CC-4176). All cells were maintained in a humidified incubator (37° C., 5% CO2).
(§2) Cells in 100 μl medium were cultured in a 96-well plate. Cancer cell lines treated with the indicated compounds by adding 50 μl of 3× stocks in duplicate at 10 concentrations. Cells were incubated with compounds for four days, then 30 μl of CellTiter® 96 AQueous One MTS Solution (Promega Cat # G3582) was added to the cells, incubated 1.5 hr at 37° C., then absorbance measured at 490 nm on a Victor plate reader (Perkin Elmer, Waltham, Mass.). Relative cell viability was determined as a percentage of untreated control wells. IC50 values were calculated using four parameter logistic model #203 with XLfit v4.2 (IDBS, Guildford, Surry, UK).

[1] = system: N87 (human gastric carcinoma derived from metastatic liver site); assay: Cytotoxicity assay for payloads (MTS), N87 cells; assay type: cell-based
Description: as §1, §2

[2] = Homo sapiens, 96 h, N87 cells, incubated with compounds for four days, MTS absorbance 490 nm, read-out: N87 IC50

**Q.** For CC(=O)Oc1cc2c(c3ccccc13)[C@H](CCl)CN2C(=O)[C@]12CCC[C@](C(=O)N3C[C@@H](CCl)c4c3cc(O)c3ccccc43)(C1)C2 [Compound 175, (1S)-1-(chloromethyl)-3-{[(1S,5S)-5-{[(1S)-1-(chloromethyl)-5-hydroxy-1,2-dihydro-3H-benzo[e]indol-3-yl]carbonyl}bicyclo[3.1.1]hept-1-yl]carbonyl}-2,3-dihydro-1H-benzo[e]indol-5-yl acetate], which IC50 (HL60 (leukemia)) is on record?
**A.** The IC50 was 11.8 nM.

**Q.** CC(=O)Oc1cc2c(c3ccccc13)[C@H](CCl)CN2C(=O)[C@H]1C[C@@H](C(=O)N2C[C@@H](CCl)c3c2cc(OC(C)=O)c2ccccc32)C1 [Compound 168, cis-cyclobutane-1,3-diylbis[carbonyl(1S)-1-(chloromethyl)-1,2-dihydro-3H-benzo[e]indole-3,5-diyl] diacetate] was tested. Which IC50 (HL60 (leukemia)) did it give?
**A.** The IC50 was 0.097 nM.

**Q.** For CC(=O)Oc1cc2c(c3ccccc13)[C@H](CCl)CN2C(=O)c1ccc(C(=O)N2C[C@@H](CCl)c3c2cc(OC(C)=O)c2ccccc32)[nH]1 [Compound 68, (1S,1′S)-3,3′-(1H-pyrrole-2,5-dicarbonyl)bis(1-(chloromethyl)-2,3-dihydro-1H-benzo[e]indole-5,3-diyl)diacetate], which IC50 [1, 2] is on record?
**A.** The IC50 was 0.033 nM.

**Q.** For O=C(c1cncc(C(=O)N2C[C@@H](CCl)c3c2cc(O)c2ccccc32)c1)N1C[C@@H](CCl)c2c1cc(O)c1ccccc21 [Compound 26, (S)-pyridine-3,5-diylbis(((S)-1-(chloromethyl)-5-hydroxy-1H-benzo[e]indol-3(2H)-yl)methanone)], which IC50 [1, 2] is on record?
**A.** Its IC50 is at least 10 nM.

**Q.** How did the IC50 [1, 2] turn out when CC(=O)Oc1cc2c(c3ccccc13)[C@H](CCl)CN2C(=O)c1ccc(C(=O)N2C[C@@H](CCl)c3c2cc(O)c2ccccc32)s1 [Compound 170, (1S)-1-(chloromethyl)-3-[(5-{[(1S)-1-(chloromethyl)-5-hydroxy-1,2-dihydro-3H-benzo[e]indol-3-yl]carbonyl}thiophen-2-yl)carbonyl]-2,3-dihydro-1H-benzo[e]indol-5-yl acetate] was run?
**A.** Its IC50 is 0.005 nM.

**Q.** With CC(=O)Oc1cc2c(c3ccccc13)[C@H](CCl)CN2C(=O)c1cnc(C(=O)N2C[C@@H](CCl)c3c2cc(OC(C)=O)c2ccccc32)s1 [Compound 71, (1S,1′S)-3,3′-(thiazole-2,5-dicarbonyl)bis(1-(chloromethyl)-2,3-dihydro-1H-benzo[e]indole-5,3-diyl)diacetate] as the compound, how does the IC50 [1, 2] read?
**A.** The IC50 was 0.085 nM.

**Q.** For O=C(c1csc(C(=O)N2C[C@@H](CCl)c3c2cc(O)c2ccccc32)c1)N1C[C@@H](CCl)c2c1cc(O)c1ccccc21 [Compound 35, (S)-thiophene-2,4-diylbis(((S)-1-(chloromethyl)-5-hydroxy-1H-benzo[e]indol-3(2H)-yl)methanone)], which IC50 [1, 2] is on record?
**A.** The IC50 was 1.21 nM.

**Q.** With CC(=O)OC[C@H]1O[C@@H](Oc2cc3c(c4ccccc24)[C@H](CCl)CN3C(=O)c2ccc(C(=O)N3C[C@@H](CCl)c4c3cc(O)c3ccccc43)s2)[C@H](OC(C)=O)[C@@H](OC(C)=O)[C@H]1OC(C)=O [Compound 153, (2R,3S,4S,5R,6S)-2-(acetoxymethyl)-6-(((S)-1-(chloromethyl)-3-(5-((S)-1-(chloromethyl)-5-hydroxy-2,3-dihydro-1H-benzo[e]indole-3-carbonyl)thiophene-2-carbonyl)-2,3-dihydro-1H-benzo[e]indol-5-yl)oxy)tetrahydro-2H-pyran-3,4,5-triyl triacetate] as the compound, how does the IC50 [1, 2] read?
**A.** Its IC50 is 4.47 nM.

**Q.** O=C(CCc1ccc(CCC(=O)N2C[C@@H](CCl)c3c2cc(O)c2ccccc32)s1)N1C[C@@H](CCl)c2c1cc(O)c1ccccc21 [Compound 146, 3,3′-thiene-2,5-diylbis{1-[(1S)-1-(chloromethyl)-5-hydroxy-1,2-dihydro-3H-benzo[e]indol-3-yl]propan-1-one}] was tested. Which IC50 [1, 2] did it give?
**A.** Its IC50 is 3.1 nM.

**Q.** Which IC50 [1, 2] does the source give for Cn1c(C(=O)N2C[C@@H](CCl)c3c2cc(O)c2ccccc32)ccc1C(=O)N1C[C@@H](CCl)c2c1cc(O)c1ccccc21 [Compound 38, (S)-(1-methyl-1H-pyrrole-2,5-diyl)bis(((S)-1-(chloromethyl)-5-hydroxy-1H-benzo[e]indol-3(2H)-yl)methanone)] here?
**A.** Its IC50 is at least 10 nM.

**Q.** With CC(=O)Oc1cc2c(c3ccccc13)[C@H](CCl)CN2C(=O)C12C3C4C1C1C2C3C41C(=O)N1C[C@@H](CCl)c2c1cc(OC(C)=O)c1ccccc21 (stereo partly drawn) [Compound 181, pentacyclo[4.2.0.0~2,5~.0~3,8~.0~4,7~]octane-1,4-diylbis[carbonyl(1S)-1-(chloromethyl)-1,2-dihydro-3H-benzo[e]indole-3,5-diyl] diacetate] as the compound, how does the IC50 [1, 2] read?
**A.** The IC50 was 0.005 nM.

**Q.** How did the IC50 [1, 2] turn out when O=C(N[C@@H](CCC(=O)N1C[C@@H](CCl)c2c1cc(O)c1ccccc21)C(=O)N1C[C@@H](CCl)c2c1cc(O)c1ccccc21)OCC1c2ccccc2-c2ccccc21 [Compound 60, [(S)-1-((S)-1-Chloromethyl-5-hydroxy-1,2-dihydro-benzo[e]indole-3-carbonyl)-4-((S)-1-chloromethyl-5-hydroxy-1,2-dihydro-benzo[e]indol-3-yl)-4-oxo-butyl]-carbamic acid 9H-fluoren-9-ylmethyl ester] was run?
**A.** Its IC50 is at least 10 nM.

**Q.** Which IC50 ([1]; Homo sapiens, 96 h, read-out: N87 IC50 (nM)) does the source give for CN(C)CCNC(=O)Oc1cc2c(c3ccccc13)[C@H](CCl)CN2C(=O)c1ccc(C(=O)N2C[C@@H](CCl)c3c2cc(O)c2ccccc32)s1 [Compound 123, (S)-1-(chloromethyl)-3-(5-((S)-1-(chloromethyl)-5-hydroxy-2,3-dihydro-1H-benzo[e]indole-3-carbonyl)thiophene-2-carbonyl)-2,3-dihydro-1H-benzo[e]indol-5-yl(2-(dimethylamino)ethyl)carbamate] here?
**A.** The IC50 was 0.003 nM.

**Q.** COC(=O)Oc1cc2c(c3ccccc13)[C@H](CCl)CN2C(=O)c1ccc(C(=O)N2C[C@@H](CCl)c3c2cc(O)c2ccccc32)s1 [Compound 119, (S)-1-(chloromethyl)-3-(5-((S)-1-(chloromethyl)-5-hydroxy-2,3-dihydro-1H-benzo[e]indole-3-carbonyl)thiophene-2-carbonyl)-2,3-dihydro-1H-benzo[e]indol-5-yl methyl carbonate] was tested. Which IC50 [1, 2] did it give?
**A.** Its IC50 is 0.004 nM.

**Q.** For CC(=O)Oc1cc2c(c3ccccc13)[C@H](CCl)CN2C(=O)Cc1ccc(CC(=O)N2C[C@@H](CCl)c3c2cc(OC(C)=O)c2ccccc32)s1 [Compound 160, thiene-2,5-diylbis[(1-oxoethane-2,1-diyl)(1S)-1-(chloromethyl)-1,2-dihydro-3H-benzo[e]indole-3,5-diyl] diacetate], which IC50 [1, 2] is on record?
**A.** Its IC50 is 12.7 nM.

**Q.** For Cc1c[nH]c2c(O)cc3c(c12)[C@H](CCl)CN3C(=O)c1ccc(C(=O)N2C[C@@H](CCl)c3c2cc(O)c2ccccc32)s1 [Compound 117, ((S)-1-Chloromethyl-5-hydroxy-1,2-dihydro-benzo[e]indol-3-yl)-[5-((S)-1-chloromethyl-5-hydroxy-8-methyl-1,6-dihydro-2H-pyrrolo[3,2-e]indole-3-carbonyl)-thiophen-2-yl]methanone], which IC50 [1, 2] is on record?
**A.** The IC50 was 0.004 nM.

**Q.** For CNCCN(C)C(=O)Oc1cc2c(c3ccccc13)[C@H](CCl)CN2C(=O)c1ccc(C(=O)N2C[C@@H](CCl)c3c2cc(O)c2ccccc32)s1 [Compound 126, (S)-1-(chloromethyl)-3-(5-((S)-1-(chloromethyl)-5-hydroxy-2,3-dihydro-1H-benzo[e]indole-3-carbonyl)thiophene-2-carbonyl)-2,3-dihydro-1H-benzo[e]indol-5-ylmethyl(2-(methylamino)ethyl)carbamate], which IC50 ([1]; N87 cells, incubated with compounds for four days, MTS absorbance 490 nm, read-out: N87 IC50) is on record?
**A.** The IC50 was 0.004 nM.
